Source: US12600709B2, “Nonpeptide somatostatin type 5 receptor agonists and uses thereof” (Crinetics Pharmaceuticals, Inc., priority 2019, dated 2026)
Like-named read-outs stand apart in the source and are kept apart here.

Key:
[1] = target: T1, human somatostatin receptor subtype 2 (Homo sapiens, UniProt P30874); test: cAMP assay for SST2R (inhibition of cAMP in CHO-K1 cells); type: cell-based; settings: Table B; inhibition of cAMP via human SST2 receptor; read-out: SST2 potency
T1 construct: expressed in transfected cells
T1 sequence (P30874 whole entry): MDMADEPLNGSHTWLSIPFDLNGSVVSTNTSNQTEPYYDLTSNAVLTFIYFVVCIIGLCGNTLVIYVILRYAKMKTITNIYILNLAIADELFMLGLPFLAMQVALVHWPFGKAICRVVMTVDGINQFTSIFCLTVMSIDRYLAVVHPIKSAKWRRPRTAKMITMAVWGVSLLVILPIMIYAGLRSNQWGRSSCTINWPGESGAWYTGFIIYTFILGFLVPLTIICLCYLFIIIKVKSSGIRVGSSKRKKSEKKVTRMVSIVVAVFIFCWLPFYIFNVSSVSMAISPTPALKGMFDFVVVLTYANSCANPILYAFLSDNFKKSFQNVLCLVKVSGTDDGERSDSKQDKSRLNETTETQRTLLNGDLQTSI
From the text: General overview: All five SSTR subtypes are Gi coupled G-protein coupled receptors (GPCRs) that lead to decreases in intracellular cyclic AMP (cAMP) when activated by an agonist. Therefore, measurement of intracellular cAMP levels can be used to assess whether compounds of the invention are agonists of SSTR subtypes (John Kelly, Troy Stevens, W. Joseph Thompson, and Roland Seifert, Current Protocols in Pharmacology, 2005, 2.2.1-2.2). One example of an intracellular cAMP assay is described below.
cAMP Assay Protocol for SST2R:
Four days prior to the assay, 5,000 Chinese hamster ovary cells (CHO-K1, ATCC #CCL-61) stably expressing the human somatostatin receptor subtype 2 are plated in each well of a 96-well tissue culture-treated plate in Ham's F12 growth media (ThermoFisher #10-080-CM) supplemented with 10% donor bovine serum (Gemini Bio-Products #100-506), 100 U/mL penicillin; 100 μg/mL streptomycin; 2 mM L-glutamine (Gemini Bio-Products #400-110) and 0.2 mg/mL hygromycin B (GoldBio #31282-04-9). The cells are cultured at 37° C., 5% CO2 and 95% humidity. On the day of the assay, the media is aspirated and the cells are treated with 50 μL of 1.6 μM NKH477 (Sigma #N3290) plus various dilutions of compounds of the invention in assay buffer [1× Hank's Balanced Salt Solution (ThermoFisher #SH3058802), 0.5 mM HEPES pH 7.4, 0.1% bovine serum albumin, 0.2 mM 3-Isobutyl-1-methylxanthine (IBMX, VWR #200002-790)]. The cells are incubated for 20 minutes at 37° C. […] The cells are treated with 50 μL of lysis buffer (HRTF cAMP kit, Cisbio). The lysate is transferred to 384-well plates and cAMP detection and visualization antibodies are added and incubated for 1-24 hours at room temperature. The time-resolved fluorescent signal is read with a Tecan M1000Pro multiplate reader. The intracellular cAMP concentrations are calculated by regression to a standard curve and are plotted vs. the concentration of the compounds of the invention and the EC50 of the compounds are calculated using standard methods. All data manipulations are in GraphPad Prism v6 or v7.

[2] = target: T2, human somatostatin receptor subtype 5 (Homo sapiens, UniProt P35346); test: cAMP assay for SST5R (inhibition of cAMP in CHO-K1 cells); type: cell-based; settings: for EC50: inhibition of cAMP via human SST5 receptor, read-out: SST5 potency; for Fold selectivity for SST5 vs SST2: class symbols, SST5 receptor over SST2 receptor
T2 construct: expressed in transfected cells
T2 sequence (P35346 whole entry): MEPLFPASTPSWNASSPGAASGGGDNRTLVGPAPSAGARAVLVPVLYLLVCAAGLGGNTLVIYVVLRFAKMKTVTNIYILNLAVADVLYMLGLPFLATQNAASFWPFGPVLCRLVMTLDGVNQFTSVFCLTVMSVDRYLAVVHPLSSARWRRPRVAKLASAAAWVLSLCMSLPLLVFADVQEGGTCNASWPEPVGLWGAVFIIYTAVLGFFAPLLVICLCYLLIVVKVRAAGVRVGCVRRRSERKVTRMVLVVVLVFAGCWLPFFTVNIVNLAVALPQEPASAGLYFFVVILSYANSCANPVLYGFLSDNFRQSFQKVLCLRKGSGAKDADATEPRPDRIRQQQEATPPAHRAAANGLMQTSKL
Outline: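 CHO-K1 cells stably expressing human SSTR5 were treated 20 min at 37 °C with compounds plus 1.6 μM NKH477 in HBSS, 0.5 mM HEPES pH 7.4, 0.1% BSA, 0.2 mM IBMX. Lysate cAMP measured by HTRF against a standard curve; EC50 from cAMP-versus-concentration plots.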

C[C@H](NC(=O)c1cncc(-c2cc(F)cc(F)c2)c1N1CC[C@](C)(N)C1)C(F)(F)F [1-54, 4-[(3S)-3-amino-3-methylpyrrolidin-1-yl]-5-(3,5-difluorophenyl)-N-[(2S)-1,1,1-trifluoropropan-2-yl]pyridine-3-carboxamide]
EC50 [1]: 100 to 1000 nM | EC50 ([2]; Table A): < 10 nM | Fold selectivity for SST5 vs SST2 ([2]; Table B): ++ (++=100 to 499) | EC50 ([2]; Table B): < 10 nM

Cc1ncc(C(=O)NC2CCC(F)(F)CC2)c(N2CC[C@H](N)C2)c1-c1cc(F)cc(F)c1 [1-233, 4-[(3S)-3-aminopyrrolidin-1-yl]-N-(4,4-difluorocyclohexyl)-5-(3,5-difluorophenyl)-6-methylpyridine-3-carboxamide]
EC50 [1]: > 1000 nM | EC50 ([2]; Table A): < 10 nM | Fold selectivity for SST5 vs SST2 ([2]; Table B): +++ (+++=>500) | EC50 ([2]; Table B): < 10 nM

C[C@]1(N)CCN(c2c(C(=O)NC3CC(F)(F)C3)cncc2-c2cc(F)cc(F)c2)C1 [1-30, 4-[(3S)-3-amino-3-methylpyrrolidin-1-yl]-N-(3,3-difluorocyclobutyl)-5-(3,5-difluorophenyl)pyridine-3-carboxamide]
EC50 [1]: 100 to 1000 nM | EC50 ([2]; Table A): < 10 nM | Fold selectivity for SST5 vs SST2 ([2]; Table B): ++ (++=100 to 499) | EC50 ([2]; Table B): < 10 nM

C[C@H](NC(=O)c1cnc(C#N)c(-c2cc(F)cc(OC(F)F)c2)c1N1CC[C@](C)(N)C1)C(F)(F)F [1-180, 4-[(3S)-3-amino-3-methylpyrrolidin-1-yl]-6-cyano-5-[3-(difluoromethoxy)-5-fluorophenyl]-N-[(2S)-1,1,1-trifluoropropan-2-yl]pyridine-3-carboxamide]
EC50 [1]: 10 to 100 nM | EC50 ([2]; Table A): < 10 nM | Fold selectivity for SST5 vs SST2 ([2]; Table B): +++ (+++=>500) | EC50 ([2]; Table B): < 10 nM

C[C@]1(N)CCN(c2c(C(=O)NC3CCC(F)(F)CC3)cncc2-c2cc(F)c(F)c(F)c2)C1 [1-20, 4-[(3S)-3-amino-3-methylpyrrolidin-1-yl]-N-(4,4-difluorocyclohexyl)-5-(3,4,5-trifluorophenyl)pyridine-3-carboxamide]
EC50 [1]: 100 to 1000 nM | EC50 ([2]; Table A): < 10 nM | Fold selectivity for SST5 vs SST2 ([2]; Table B): +++ (+++=>500) | EC50 ([2]; Table B): < 10 nM

COc1ncc(C(=O)NC23CC(F)(C2)C3)c(N2CC[C@H](N)C2)c1-c1cc(F)cc(Cl)c1 [1-286, 4-[(3S)-3-aminopyrrolidin-1-yl]-5-(3-chloro-5-fluorophenyl)-N-{3-fluorobicyclo[1.1.1]pentan-1-yl}-6-methoxypyridine-3-carboxamide]
EC50 [1]: 100 to 1000 nM | EC50 ([2]; Table A): < 10 nM | Fold selectivity for SST5 vs SST2 ([2]; Table B): +++ (+++=>500) | EC50 ([2]; Table B): < 10 nM

COc1ncc(C(=O)N[C@@H](C)C(F)(F)F)c(N2CC[C@](C)(N)C2)c1-c1c(C)noc1C [1-187, 4-[(3S)-3-amino-3-methylpyrrolidin-1-yl]-5-(3,5-dimethyl-1,2-oxazol-4-yl)-6-methoxy-N-[(2S)-1,1,1-trifluoropropan-2-yl]pyridine-3-carboxamide]
EC50 [1]: > 1000 nM | EC50 ([2]; Table A): < 10 nM | Fold selectivity for SST5 vs SST2 ([2]; Table B): +++ (+++=>500) | EC50 ([2]; Table B): < 10 nM

Cc1ncc(C(=O)N[C@@H](C)C2CC2)c(N2CC[C@](C)(N)C2)c1-c1cc(F)cc(F)c1 [1-122, 4-[(3S)-3-amino-3-methylpyrrolidin-1-yl]-N-[(1S)-1-cyclopropylethyl]-5-(3,5-difluorophenyl)-6-methylpyridine-3-carboxamide]
EC50 [1]: 100 to 1000 nM | EC50 ([2]; Table A): < 10 nM | Fold selectivity for SST5 vs SST2 ([2]; Table B): +++ (+++=>500) | EC50 ([2]; Table B): < 10 nM

C[C@]1(N)CCN(c2c(C(=O)NC3CC(F)(F)C3)cncc2-c2cc(F)cc(Cl)c2)C1 [1-35, 4-[(3S)-3-amino-3-methylpyrrolidin-1-yl]-5-(3-chloro-5-fluorophenyl)-N-(3,3-difluorocyclobutyl)pyridine-3-carboxamide]
EC50 [1]: 100 to 1000 nM | EC50 ([2]; Table A): < 10 nM | Fold selectivity for SST5 vs SST2 ([2]; Table B): ++ (++=100 to 499) | EC50 ([2]; Table B): < 10 nM

COc1cc(C#N)cc(-c2cncc(C(=O)NC34CC(C3)C4)c2N2CC[C@](C)(N)C2)c1 [1-94, 4-[(3S)-3-amino-3-methylpyrrolidin-1-yl]-N-{bicyclo[1.1.1]pentan-1-yl}-5-(3-cyano-5-methoxyphenyl)pyridine-3-carboxamide]
EC50 [1]: 100 to 1000 nM | EC50 ([2]; Table A): < 10 nM | Fold selectivity for SST5 vs SST2 ([2]; Table B): ++ (++=100 to 499) | EC50 ([2]; Table B): < 10 nM

COc1ncc(C(=O)N[C@@H](C)C2CC2)c(N2CC[C@](C)(N)C2)c1-c1cc(F)cc(Cl)c1 [1-229, 4-[(3S)-3-amino-3-methylpyrrolidin-1-yl]-5-(3-chloro-5-fluorophenyl)-N-[(1S)-1-cyclopropylethyl]-6-methoxypyridine-3-carboxamide]
EC50 [1]: 10 to 100 nM | EC50 ([2]; Table A): < 10 nM | Fold selectivity for SST5 vs SST2 ([2]; Table B): +++ (+++=>500) | EC50 ([2]; Table B): < 10 nM

C[C@H](NC(=O)c1ncc(Cl)c(-c2cc(F)cc(F)c2)c1N1CC[C@](C)(N)C1)C1CC1 [4-1, 3-[(3S)-3-amino-3-methylpyrrolidin-1-yl]-5-chloro-N-[(1S)-1-cyclopropylethyl]-4-(3,5-difluorophenyl)pyridine-2-carboxamide]
EC50 [1]: > 1000 nM | EC50 ([2]; Table A): < 10 nM | Fold selectivity for SST5 vs SST2 ([2]; Table B): +++ (+++=>500) | EC50 ([2]; Table B): < 10 nM

4-[(3S)-3-amino-3-methylpyrrolidin-1-yl]-5-(3-cyano-5-methoxyphenyl)-N-[(1S)-1-cyclopropylethyl]-6-methylpyridine-3-carboxamide [1-280]
EC50 [1]: 100 to 1000 nM | EC50 ([2]; Table A): < 10 nM | Fold selectivity for SST5 vs SST2 ([2]; Table B): +++ (+++=>500) | EC50 ([2]; Table B): < 10 nM

COc1cc(C#N)cc(-c2c(C(F)(F)F)ncc(C(=O)N[C@@H](C)C3CC3)c2N2CC[C@](C)(N)C2)c1 [1-197, 4-[(3S)-3-amino-3-methylpyrrolidin-1-yl]-5-(3-cyano-5-methoxyphenyl)-N-[(1S)-1-cyclopropylethyl]-6-(trifluoromethyl)pyridine-3-carboxamide]
EC50 [1]: 100 to 1000 nM | EC50 ([2]; Table A): < 10 nM | Fold selectivity for SST5 vs SST2 ([2]; Table B): +++ (+++=>500) | EC50 ([2]; Table B): < 10 nM

C[C@]1(N)CCN(c2c(C(=O)NC3CCCCC3)ccnc2-c2cc(F)cc(F)c2)C1 [3-2, 3-[(3S)-3-amino-3-methylpyrrolidin-1-yl]-N-cyclohexyl-2-(3,5-difluorophenyl)pyridine-4-carboxamide]
EC50 [1]: > 1000 nM | EC50 ([2]; Table A): < 10 nM | Fold selectivity for SST5 vs SST2 ([2]; Table B): +++ (+++=>500) | EC50 ([2]; Table B): < 10 nM

COc1ncc(C(=O)NCc2ccon2)c(N2CC[C@](C)(N)C2)c1-c1cc(F)cc(Cl)c1 [1-238, 4-[(3S)-3-amino-3-methylpyrrolidin-1-yl]-5-(3-chloro-5-fluorophenyl)-6-methoxy-N-[(1,2-oxazol-3-yl)methyl]pyridine-3-carboxamide]
EC50 [1]: 100 to 1000 nM | EC50 ([2]; Table A): < 10 nM | Fold selectivity for SST5 vs SST2 ([2]; Table B): +++ (+++=>500) | EC50 ([2]; Table B): < 10 nM

Cc1cc(F)cc(-c2cncc(C(=O)NC(C3CC3)C3CC3)c2N2CC[C@](C)(N)C2)c1 [1-25, 4-[(3S)-3-amino-3-methylpyrrolidin-1-yl]-N-(dicyclopropylmethyl)-5-(3-fluoro-5-methylphenyl)pyridine-3-carboxamide]
EC50 [1]: 100 to 1000 nM | EC50 ([2]; Table A): < 10 nM | Fold selectivity for SST5 vs SST2 ([2]; Table B): +++ (+++=>500) | EC50 ([2]; Table B): < 10 nM

CCOc1cc(-c2c(C(F)(F)F)ncc(C(=O)N[C@@H](C)C3CC3)c2N2CC[C@](C)(N)C2)ccn1 [1-206, 4-[(3S)-3-amino-3-methylpyrrolidin-1-yl]-N-[(1S)-1-cyclopropylethyl]-2′-ethoxy-2-(trifluoromethyl)-[3,4′-bipyridine]-5-carboxamide]
EC50 [1]: > 1000 nM | EC50 ([2]; Table A): < 10 nM | Fold selectivity for SST5 vs SST2 ([2]; Table B): +++ (+++=>500) | EC50 ([2]; Table B): < 10 nM

N#Cc1ncc(C(=O)NC23CC(C2)C3)c(N2CC[C@H](N)C2)c1-c1cc(F)cc(Cl)c1 [1-90, 4-[(3S)-3-aminopyrrolidin-1-yl]-N-{bicyclo[1.1.1]pentan-1-yl}-5-(3-chloro-5-fluorophenyl)-6-cyanopyridine-3-carboxamide]
EC50 [1]: 100 to 1000 nM | EC50 ([2]; Table A): < 10 nM | Fold selectivity for SST5 vs SST2 ([2]; Table B): +++ (+++=>500) | EC50 ([2]; Table B): < 10 nM
